According to US20100267561A1, “HERBICIDAL PYRIDAZINONE DERIVATIVES” (priority 2007, published 2010):

Experiments:
Assay in all cases: Test B pre-/postemergence plant response
Format in all cases: in vivo
[1] = tested on: Italian ryegrass (Lolium multiflorum); details: for Ryegrass, Italian plant response rating: 8 g ai/ha
Outline: (§1)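 Visual scoring from 0 (no effect) to 100 (complete control) against untreated controls was done 13 to 15 days after greenhouse treatment. Chemicals were formulated in a surfactant-containing non-phytotoxic solvent and applied to soil preemergence or to 1- to 4-leaf (2-18 cm) plants postemergence.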

[2] = tested on: Russian thistle (Salsola iberica); details: Preemergence
Outline: as §1

[3] = tested on: blackgrass (Alopecurus myosuroides); details: for Blackgrass plant response rating: 8 g ai/ha
Outline: as §1

[4] = tested on: catchweed bedstraw (Galium aparine); details: Preemergence
Outline: as §1

[5] = tested on: common ragweed (Ambrosia elation); details: for Ragweed plant response rating: 8 g ai/ha
Outline: as §1

[6] = tested on: eastern black (E.B.) nightshade (Solanum ptycanthum); details: Preemergence
Outline: as §1

[7] = tested on: giant foxtail (Setaria faberii); details: for Foxtail, Giant plant response rating: 8 g ai/ha
Outline: as §1

[8] = tested on: goosegrass (Eleusine indica); details: for Goosegrass plant response rating: 8 g ai/ha
Outline: as §1

[9] = tested on: johnsongrass (Sorghum halepense); details: for Johnsongrass plant response rating: 8 g ai/ha
Outline: as §1

[10] = tested on: kochia (Kochia scoparia); details: for Kochia plant response rating: 8 g ai/ha
Outline: as §1

[11] = tested on: lambsquarters (Chenopodium album)
Outline: as §1

[12] = tested on: pigweed (Amaranthus retroflexus); details: for Pigweed plant response rating: 8 g ai/ha
Outline: as §1

[13] = tested on: soybean (Glycine max); details: for Soybean plant response rating: 8 g ai/ha
Outline: as §1

[14] = tested on: woolly cupgrass (Eriochloa villosa); details: for Cupgrass, Woolly plant response rating: 8 g ai/ha
Outline: as §1

[15] = Postemergence, 16 g ai/ha, scale 0 to 100
[16] = Postemergence, 31 g ai/ha, scale 0 to 100, 0 no effect, 100 complete control
[17] = Postemergence, 62 g ai/ha, scale 0 to 100
[18] = Preemergence, 16 g ai/ha, scale 0 to 100 (0 no effect, 100 complete control)
[19] = Preemergence, 31 g ai/ha, 0 to 100 scale, 0 no effect, 100 complete control
[20] = Preemergence, 62 g ai/ha, scale 0 to 100
[21] = 16 g ai/ha, scale 0 to 100 (0 no effect, 100 complete control)
[22] = 31 g ai/ha, 0 to 100 scale, 0 no effect, 100 complete control

CCc1cc(-c2ccc(C(F)(F)F)cc2)nn1-c1c(OS(C)(=O)=O)cnn(C)c1=O [Compound 19]
Ryegrass, Italian plant response rating ([1]; postemergence, 0-100 scale): 80 | Plant response rating, Ryegrass, Italian [1, 15]: 98 | Plant response rating, Ryegrass, Italian [1, 16]: 100 | Plant response rating, Ryegrass, Italian [1, 17]: 100 | Plant response rating, Ryegrass, Italian [1, 18]: 90 | Plant response rating, Ryegrass, Italian [1, 19]: 100 | Plant response rating, Ryegrass, Italian [1, 20]: 100 | Ryegrass, Italian plant response rating ([1]; Preemergence, scale 0 to 100): 50 | Plant response rating, Russian Thistle [2, 21]: 0 | Plant response rating, Russian Thistle [2, 22]: 0 | Russian Thistle plant response rating ([2]; 8 g ai/ha, scale 0 to 100): 0 | Blackgrass plant response rating ([3]; postemergence, 0-100 scale): 80 | Plant response rating, Blackgrass [3, 15]: 85 | Plant response rating, Blackgrass [3, 16]: 90 | Plant response rating, Blackgrass [3, 17]: 95 | Plant response rating, Blackgrass [3, 18]: 100 | Plant response rating, Blackgrass [3, 19]: 100 | Plant response rating, Blackgrass [3, 20]: 100 | Blackgrass plant response rating ([3]; Preemergence, scale 0 to 100): 95 | Plant response rating, Galium [4, 22]: 0 | Plant response rating, Galium ([4]; 62 g ai/ha, scale 0 to 100): 0 | Galium plant response rating ([4]; 8 g ai/ha, scale 0 to 100): 0 | Ragweed plant response rating ([5]; postemergence, 0-100 scale): 0 | Plant response rating, Ragweed [5, 15]: 0 | Plant response rating, Ragweed [5, 16]: 0 | Plant response rating, Ragweed [5, 17]: 0 | Plant response rating, Ragweed [5, 18]: 0 | Plant response rating, Ragweed [5, 19]: 0 | Plant response rating, Ragweed [5, 20]: 0 | Ragweed plant response rating ([5]; Preemergence, scale 0 to 100): 0 | Plant response rating, Nightshade, E. B. [6, 21]: 0 | Plant response rating, Nightshade, E. B. ([6]; 62 g ai/ha, scale 0 to 100): 0 | Nightshade, E. B. plant response rating ([6]; 8 g ai/ha, scale 0 to 100): 0 | Foxtail, Giant plant response rating ([7]; postemergence, 0-100 scale): 95 | Plant response rating, Foxtail, Giant [7, 15]: 100 | Plant response rating, Foxtail, Giant [7, 16]: 100 | Plant response rating, Foxtail, Giant [7, 17]: 100 | Plant response rating, Foxtail, Giant [7, 18]: 100 | Plant response rating, Foxtail, Giant [7, 19]: 100 | Plant response rating, Foxtail, Giant [7, 20]: 100 | Foxtail, Giant plant response rating ([7]; Preemergence, scale 0 to 100): 70 | Goosegrass plant response rating ([8]; postemergence, 0-100 scale): 50 | Plant response rating, Goosegrass [8, 15]: 80 | Plant response rating, Goosegrass [8, 16]: 80 | Plant response rating, Goosegrass [8, 17]: 90 | Plant response rating, Goosegrass [8, 18]: 75 | Plant response rating, Goosegrass [8, 19]: 100 | Plant response rating, Goosegrass [8, 20]: 100 | Goosegrass plant response rating ([8]; Preemergence, scale 0 to 100): 0 | Johnsongrass plant response rating ([9]; postemergence, 0-100 scale): 40 | Plant response rating, Johnsongrass [9, 15]: 80 | Plant response rating, Johnsongrass [9, 16]: 100 | Plant response rating, Johnsongrass [9, 17]: 100 | Plant response rating, Johnsongrass [9, 18]: 100 | Plant response rating, Johnsongrass [9, 19]: 100 | Plant response rating, Johnsongrass [9, 20]: 100 | Johnsongrass plant response rating ([9]; Preemergence, scale 0 to 100): 80 | Kochia plant response rating ([10]; postemergence, 0-100 scale): 0 | Plant response rating, Kochia [10, 15]: 0 | Plant response rating, Kochia [10, 16]: 0 | Plant response rating, Kochia [10, 17]: 0 | Plant response rating, Kochia [10, 18]: 0 | Plant response rating, Kochia [10, 20]: 0 | Kochia plant response rating ([10]; Preemergence, scale 0 to 100): 0 | Lambsquarters plant response rating ([11]; 8 g ai/ha, postemergence, 0-100 scale): 0 | Plant response rating, Lambsquarters [11, 15]: 0 | Plant response rating, Lambsquarters [11, 16]: 0 | Plant response rating, Lambsquarters [11, 17]: 0 | Plant response rating, Lambsquarters [11, 18]: 0 | Plant response rating, Lambsquarters [11, 19]: 0 | Plant response rating, Lambsquarters [11, 20]: 40 | Pigweed plant response rating ([12]; postemergence, 0-100 scale): 0 | Plant response rating, Pigweed [12, 15]: 0 | Plant response rating, Pigweed [12, 16]: 0 | Plant response rating, Pigweed [12, 17]: 0 | Plant response rating, Pigweed [12, 18]: 0 | Plant response rating, Pigweed [12, 19]: 0 | Plant response rating, Pigweed [12, 20]: 0 | Pigweed plant response rating ([12]; Preemergence, scale 0 to 100): 0 | Soybean plant response rating ([13]; postemergence, 0-100 scale): 0 | Plant response rating, Soybean [13, 15]: 0 | Plant response rating, Soybean [13, 16]: 0 | Plant response rating, Soybean [13, 17]: 0 | Plant response rating, Soybean [13, 20]: 0 | Soybean plant response rating ([13]; Preemergence, scale 0 to 100): 0 | Cupgrass, Woolly plant response rating ([14]; postemergence, 0-100 scale): 90 | Plant response rating, Cupgrass, Woolly [14, 15]: 90 | Plant response rating, Cupgrass, Woolly [14, 16]: 100 | Plant response rating, Cupgrass, Woolly [14, 17]: 100 | Plant response rating, Cupgrass, Woolly [14, 18]: 85 | Plant response rating, Cupgrass, Woolly [14, 19]: 98 | Plant response rating, Cupgrass, Woolly [14, 20]: 100 | Cupgrass, Woolly plant response rating ([14]; Preemergence, scale 0 to 100): 50
